Where two headings read alike, the source gives them in different places.
What was measured:
hDGKalpha(1-735)-N-His = hDGKalpha(1-735)-N-His (Homo sapiens (Human), UniProt P23743); experiment: DGKalpha ADP Glo assay (in vitro DGK inhibition); assay type: biochemical; settings: DLG 125 uM, ATP 25 μM, DGK α 4 nM, 1 hour reaction
Procedure: (§1) DGK α and ζ kinase use ATP to phosphorylate the substrate 1,2-dilauroyl-sn-glycerol (DLG, incorporated in the liposomes). ATP is converted to ADP as a result of this enzymatic reaction. After the kinase reaction, an ATP-depletion reagent is added to terminate the kinase reaction and deplete any remaining ATP, leaving only ADP. Second, a detection reagent is added to simultaneously convert ADP to ATP and allow the newly synthesized ATP to be converted to light using a coupled luciferase/luciferin reaction.
(§2) Purification of both enzymes was performed as previously described by Takahashi et al., PeerJ, 2018 (Takahashi, D.; Sakane, F. Expression and purification of human diacylglycerol kinase alpha from baculovirus-infected insect cells for structural studies. PeerJ 2018, 6, No. e5449).
(§3) A concentrated liposome solution was prepared in assay buffer without DTT and BSA: 2 mM of DLG in 21 mM of total liposome (2 mM DLG/8 mM PS/11 mM PC). […] The reactions were started by addition of DGK α and ζ kinases at 4 nM and 2 nM final concentrations, respectively. After 1 hour reaction, the amount of ADP formed was detected with the ADP-Glo kinase assay (Promega) according to the manufacturer instructions. Compounds were added in 11-points dose response, starting at […], 1:3 dilutions, with a final DMSO concentration of 2%. The multidrop combi was used as a liquid handler and luminescence was read with 0.5 s by the envision reader (PE).

hDGKzeta(1-928)-N-His = hDGKzeta(1-928)-N-His (Homo sapiens (Human), UniProt Q13574); experiment: DGKzeta ADP Glo assay (in vitro DGK inhibition); assay type: biochemical; settings: DLG 125 uM, ATP 50 μM, DGK ζ 2 nM, 1 hour reaction
Procedure: as §1, §2, §3

primary human T-cells [1] = experiment: Proliferation assay after 5 days (CellTiter-Glo, CD3 stimulation; PBS counter screen); assay type: cell-based; settings: CD3 stimulation; for Emax: read-out: Emax proliferation (% activation); for EC50: primary human T-cells, CellTiter-Glo after 5 days, EC50 of fitted sigmoidal curve, read-out: Tcell Proliferation CD3 EC50
Summary of the method: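 After compound addition to medium-only plates, cells are cultured 5 days, equilibrated to room temperature, mixed with an equal volume of CellTiter-Glo 2.0 and rocked 15 min before luminescence is read. Signal reflects ATP content, taken as proportional to cell number.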

MV-3 cells = experiment: T-cell - TCB - MV3 killing assay (MCSP-TCB, RFP object count by Incucyte); assay type: cell-based, human; settings: 5 d; for Emax: read-out: MSCP TCB killing MV-3 cells 5 d Emax; for EC50: primary human T-cells + MCSP-TCB, MV-3 RFP cells, read-out: MSCP TCB killing MV-3 cells 5 d EC50
primary human T-cells [2] = tested on: primary human T-cells
Procedure: As readouts for T-cell activation, IL2 secretion after 24 hours and proliferation after 5 days was measured. Increases in IL2 secretion and proliferation upon compound treatment were assessed as the % of the maximum of reference compound A1. […] As a counter screen and to make sure that no unwanted TCR-independent activation was triggered, PBS conditions were run for all compounds.
For coating of plates, PBS++ with PBS−− or PBS++ with CD3 antibody (concentration depending on donor and determined by CD3 titrations) was added 100 μl/well to Poly-D Lysine coated 96-well plates. Plates were sealed and incubated at room temperature for 3 hours on a table-top rocking platform. After incubation, plates were washed once with PBS−− and filled with 40 μl/well culture medium only. Compounds were then added (see next section) to medium only plates. After 3 hours of culturing the T-cells, cells were filtered through a cell strainer (Miltenyi Biotech, #130-041-407), counted again and concentration was adjusted to 1.25 Mio/ml.
Cells were then seeded 80 μl/well to the 40 μl/well including dispensed compounds according to plate layout. By adding cells, compounds were further diluted 1:3, and resulting in 100 k cells/120 μl/well. After 24 hours 40 μl of supernatant was collected carefully from the top while not disturbing the cells and transferred into a round bottom 96 well plate. Collected and frozen supernatant was used for detection of IL2 using the IL-2 Human ProQuantum Immunoassay Kit (Invitrogen) or using the Human IL-2 ELISA Kit (Thermo Fisher).
Compounds were added in a 5 or 6pt dose response with the Tecan D300e Digital Dispenser, all conditions 3 times more concentrated than the end-concentration, since cells are added afterwards (80 μl cells to 40 μl prepared medium with treatment). The DR was starting at 20 μM or 10 μM final top concentration and a dilution factor of 3.333. The positive control was the reference compound A1 that was added in a dose response as well, additionally to 3 wells of only 20 μM representing the positive stimulator control. All wells were normalized with DMSO to a final concentration of 0.6% (0.2% end-concentration).
The immunoassay is done following the manufacturer's manual (Invitrogen, #A35603). Additional information: For the immunoassay, MicroAmp™ EnduraPlate™ Optical 384-Well plates are used. Frozen supernatant is thawed and centrifuged for 5 minutes at 1000×g, both steps at 4° C. After centrifugation, required sample amount is taken from the top, and in a separate LightCycler V-bottom plate (working plate) diluted with assay dilution buffer, dilution factor depending on the PBS or CD3 condition but at least 1:3. IL-2 standard and blanks are prepared in the same V-bottom plate, standard with a range of 0.0128-5000 pg/ml (extended version). After preparation, 5 μl of sample dilutions or standard/blanks are transferred to the optical 384-well plate (assay plate) and the 10 μl reaction protocol is being followed. For measurement, the QuantStudio 12K Flex system is used.
ELISA is done following the manufacturer's manual (Thermo Fisher Scientific, #88-7025-88). Additional information: For the ELISA Nunc MaxiSorp 96 well plates are used. Frozen supernatant is thawed and centrifuged for 5 minutes at 1000×g, both steps at 4° C. After that, required sample amount is taken from the top, and in a separate V-bottom plate diluted with ELISA diluent, dilution factor depending on the PBS or CD3 condition. IL-2 standard and blanks are prepared in the same V-bottom plate. After preparation, 50 μl of sample dilutions and 100 μl of standard or blanks are transferred to the Nunc plates.
CD3 and PBS plates were analysed separately in Genedata Screener using Roche Normalization PCT_POS_CTRL with DMSO set as Neutral Control and 20 μM of the reference compound A1 set as Stimulator Control/100%.
For CD3 conditions EC50 and Emax of the fitted sigmoidal curve were reported.

[3] = Homo sapiens, T-cell, 120 h, 5 days, normalized to reference compound A1 as stimulator control = 100%, DMSO neutral control
[4] = Homo sapiens, MV-3, 120 h, normalized: MCSP-TCB only = neutral control, 20 μM reference compound A1 = 100%

Sequence of hDGKzeta(1-928)-N-His (Q13574 whole entry): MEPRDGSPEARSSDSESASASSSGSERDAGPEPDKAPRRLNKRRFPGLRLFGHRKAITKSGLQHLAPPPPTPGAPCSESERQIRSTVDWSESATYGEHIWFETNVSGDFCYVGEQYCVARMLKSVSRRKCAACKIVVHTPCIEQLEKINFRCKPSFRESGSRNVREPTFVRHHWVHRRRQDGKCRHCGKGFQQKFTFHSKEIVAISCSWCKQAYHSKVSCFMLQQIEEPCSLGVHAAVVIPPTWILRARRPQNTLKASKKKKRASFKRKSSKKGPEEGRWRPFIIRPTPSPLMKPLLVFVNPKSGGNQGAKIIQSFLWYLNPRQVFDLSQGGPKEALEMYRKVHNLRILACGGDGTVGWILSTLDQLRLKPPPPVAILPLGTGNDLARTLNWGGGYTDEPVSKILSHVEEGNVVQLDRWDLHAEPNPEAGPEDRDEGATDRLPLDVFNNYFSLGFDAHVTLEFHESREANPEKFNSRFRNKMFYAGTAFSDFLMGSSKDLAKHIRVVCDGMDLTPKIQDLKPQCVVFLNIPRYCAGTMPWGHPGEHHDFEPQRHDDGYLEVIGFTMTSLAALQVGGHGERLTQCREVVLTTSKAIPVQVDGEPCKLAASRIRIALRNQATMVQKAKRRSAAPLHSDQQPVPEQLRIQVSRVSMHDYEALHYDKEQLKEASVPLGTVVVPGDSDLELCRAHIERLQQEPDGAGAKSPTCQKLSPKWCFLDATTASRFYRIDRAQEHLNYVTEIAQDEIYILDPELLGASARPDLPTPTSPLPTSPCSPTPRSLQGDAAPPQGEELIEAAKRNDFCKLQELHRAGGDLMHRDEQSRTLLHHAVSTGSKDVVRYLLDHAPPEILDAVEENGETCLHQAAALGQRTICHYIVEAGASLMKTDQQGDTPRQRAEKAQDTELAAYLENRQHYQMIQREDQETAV
Sequence of hDGKalpha(1-735)-N-His (P23743 whole entry): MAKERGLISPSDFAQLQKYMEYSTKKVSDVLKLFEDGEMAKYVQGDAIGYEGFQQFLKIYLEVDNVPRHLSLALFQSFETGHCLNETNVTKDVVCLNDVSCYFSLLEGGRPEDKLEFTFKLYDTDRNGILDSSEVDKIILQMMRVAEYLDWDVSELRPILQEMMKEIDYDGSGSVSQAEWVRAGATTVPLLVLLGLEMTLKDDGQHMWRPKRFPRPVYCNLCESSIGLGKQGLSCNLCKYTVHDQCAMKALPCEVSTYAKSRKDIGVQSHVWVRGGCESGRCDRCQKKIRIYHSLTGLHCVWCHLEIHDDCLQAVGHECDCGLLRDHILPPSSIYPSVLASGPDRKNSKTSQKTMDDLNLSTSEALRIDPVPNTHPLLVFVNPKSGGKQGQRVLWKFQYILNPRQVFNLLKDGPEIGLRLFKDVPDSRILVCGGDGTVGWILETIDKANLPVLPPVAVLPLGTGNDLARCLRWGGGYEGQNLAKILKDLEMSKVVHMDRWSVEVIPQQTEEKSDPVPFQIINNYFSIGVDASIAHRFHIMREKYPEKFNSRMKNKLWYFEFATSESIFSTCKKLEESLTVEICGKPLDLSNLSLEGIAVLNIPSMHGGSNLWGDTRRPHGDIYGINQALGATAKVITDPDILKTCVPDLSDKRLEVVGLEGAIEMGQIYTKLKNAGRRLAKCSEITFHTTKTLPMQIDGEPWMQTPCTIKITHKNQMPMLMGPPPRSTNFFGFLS

Structure (SMILES) | IC50 (hDGKalpha(1-735)-N-His) | IC50 (hDGKzeta(1-928)-N-His) | Emax (primary human T-cells [1]; [3]) | EC50 (primary human T-cells [1]; Homo sapiens, T-cell, 120 h) | Emax (MV-3 cells; [4]) | EC50 (MV-3 cells; Homo sapiens, MV-3, 120 h) | EC50 (primary human T-cells [2]) | EC50 (MV-3 cells) | Emax proliferation (% activation) (primary human T-cells [1]; 5 days, normalized to reference compound A1 as stimulator control = 100%, DMSO neutral control) | EC50 (primary human T-cells [1]) | MSCP TCB killing MV-3 cells 5 d Emax (MV-3 cells; normalized: MCSP-TCB only = neutral control, 20 μM reference compound A1 = 100%)
CC(C)Oc1ccc(CN2C(=O)[C@@H](N)CS(=O)(=O)c3cc(F)c(-c4noc(C5CN(C)CC(F)(F)C5)n4)cc32)cc1 (stereo partly drawn) [Example 345, (3R)-3-amino-7-[5-(5,5-difluoro-1-methyl-3-piperidyl)-1,2,4-oxadiazol-3-yl]-8-fluoro-5-[(4-isopropoxyphenyl)methyl]-1,1-dioxo-2,3-dihydro-1λ^6,5-benzothiazepin-4-one] | 0.343 µM | 0.207 µM | 152% | – | – | – | – | – | – | – | –
CC(C)(C)c1noc(-c2cc3c(cc2F)S(=O)(=O)C[C@H](N)C(=O)N3Cc2ccc(Cl)cc2)n1 [Example 43, (3R)-3-Amino-7-(3-tert-butyl-1,2,4-oxadiazol-5-yl)-5-[(4-chlorophenyl)methyl]-8-fluoro-1,1-dioxo-2,3-dihydro-1λ^6,5-benzothiazepin-4-one] | – | – | 143% | 0.265 µM | 102% | 0.04 µM | 2.32 µM | – | – | – | –
N[C@H]1CS(=O)(=O)c2cc(F)c(-c3nnc(C4CCCCC4(F)F)o3)cc2N(Cc2ccc(Cl)cc2)C1=O (stereo partly drawn) [Example 74, (3R)-3-Amino-5-[(4-chlorophenyl)methyl]-7-[5-(2,2-difluorocyclohexyl)-1,3,4-oxadiazol-2-yl]-8-fluoro-1,1-dioxo-2,3-dihydro-1λ^6,5-benzothiazepin-4-one] | – | – | 180% | 0.0487 µM | 97% | – | 0.0552 µM | 0.02 µM | – | – | –
CC(C)(C)c1nnc(-c2ccc3c(c2)N(Cc2ccc(C(C)(C)C#N)cc2)C(=O)[C@@H](N)CS3(=O)=O)o1 [Example 437, 2-[4-[[(3R)-3-amino-7-(5-tert-butyl-1,3,4-oxadiazol-2-yl)-1,1,4-trioxo-2,3-dihydro-1λ^6,5-benzothiazepin-5-yl]methyl]phenyl]-2-methyl-propanenitrile] | – | – | 112% | 0.698 µM | 88% | 0.34 µM | 1.4 µM | – | – | – | –
N[C@H]1CS(=O)(=O)c2cc(F)c(-c3nnc(NC4CCC(F)(F)CC4)o3)cc2N(Cc2ccc(Cl)cc2)C1=O [Example 458, (3R)-3-amino-5-[(4-chlorophenyl)methyl]-7-[5-[(4,4-difluorocyclohexyl)amino]-1,3,4-oxadiazol-2-yl]-8-fluoro-1,1-dioxo-2,3-dihydro-1λ^6,5-benzothiazepin-4-one] | – | – | 116% | 0.491 µM | 95% | – | 0.543 µM | 0.59 µM | – | – | –
CN1CC(c2nc(-c3cc4c(cc3F)S(=O)(=O)C[C@H](N)C(=O)N4Cc3ccc(Cl)cc3)no2)CC(F)(F)C1 (stereo partly drawn) [Example 323, (3R)-3-amino-5-[(4-chlorophenyl)methyl]-7-[5-(5,5-difluoro-1-methyl-3-piperidyl)-1,2,4-oxadiazol-3-yl]-8-fluoro-1,1-dioxo-2,3-dihydro-1λ^6,5-benzothiazepin-4-one] | – | – | 109% | 0.229 µM | 100% | – | 0.403 µM | 0.09 µM | – | – | –
CC(C)(C)c1nnc(-c2cc3c(cc2F)[S+]([O-])C[C@H](N)C(=O)N3Cc2ccc(Cl)cc2)o1 (single isomer, unassigned; epimer b) [Example 187] | – | – | – | – | – | – | 0.594 µM | 1.64 µM | 92 % activation | 1.54 µM | 57%
CC(C)(C)n1cc(-c2cc3c(cc2F)S(=O)(=O)C[C@H](N)C(=O)N3Cc2ccc(Cl)cc2)cn1 [Example 278, (3R)-3-amino-7-(1-tert-butylpyrazol-4-yl)-5-[(4-chlorophenyl)methyl]-8-fluoro-1,1-dioxo-2,3-dihydro-1λ^6,5-benzothiazepin-4-one] | – | – | 102% | 1.08 µM | 100% | – | 0.177 µM | 0.83 µM | – | – | –
CC(C)(C)c1cnn(-c2cc3c(cc2F)S(=O)(=O)C[C@H](N)C(=O)N3Cc2ccc(Cl)cc2)c1 [Example 282, (3R)-3-amino-7-(4-tert-butylpyrazol-1-yl)-5-[(4-chlorophenyl)methyl]-8-fluoro-1,1-dioxo-2,3-dihydro-1λ^6,5-benzothiazepin-4-one] | – | – | 96% | 5.49 µM | 74% | – | 3.71 µM | 0.88 µM | – | – | –
N[C@H]1CS(=O)(=O)c2cc(F)c(-c3nnc(N4CCOCC4)o3)cc2N(Cc2ccc(Cl)cc2)C1=O [Example 454, (3R)-3-amino-5-[(4-chlorophenyl)methyl]-8-fluoro-7-(5-morpholino-1,3,4-oxadiazol-2-yl)-1,1-dioxo-2,3-dihydro-1λ^6,5-benzothiazepin-4-one] | – | – | 129% | 0.309 µM | 100% | – | 0.0977 µM | 0.07 µM | – | – | –
CC(C)Oc1ccc(CN2C(=O)[C@@H](N)CS(=O)(=O)c3cc(F)c(-c4nnc(C(C)(C)C)o4)cc32)cc1 [Example 254, (3R)-3-amino-7-(5-tert-butyl-1,3,4-oxadiazol-2-yl)-8-fluoro-5-[(4-isopropoxyphenyl)methyl]-1,1-dioxo-2,3-dihydro-1λ^6,5-benzothiazepin-4-one] | – | – | 95% | < 0.0151 µM | 104% | – | 0.0595 µM | 0.01 µM | – | – | –
COC(=O)N1CCC(C)(c2nnc(-c3cc4c(cc3F)S(=O)(=O)C[C@H](N)C(=O)N4Cc3ccc(Cl)cc3)o2)CC1 [Example 171, methyl 4-methyl-4-[5-[(3R)-3-amino-5-[(4-chlorophenyl)methyl]-8-fluoro-1,1,4-trioxo-2,3-dihydro-1λ^6,5-benzothiazepin-7-yl]-1,3,4-oxadiazol-2-yl]piperidine-1-carboxylate] | – | – | 93% | 0.0555 µM | 100% | – | 0.0757 µM | 0.04 µM | – | – | –
CC(C)Oc1ccc(CN2C(=O)[C@@H](N)CS(=O)(=O)c3cc(F)c(-c4nnc(C(C)(C)C)o4)cc32)cn1 [Example 249, (3R)-3-amino-7-(5-tert-butyl-1,3,4-oxadiazol-2-yl)-8-fluoro-5-[(6-isopropoxy-3-pyridyl)methyl]-1,1-dioxo-2,3-dihydro-1λ^6,5-benzothiazepin-4-one] | – | – | 161% | 1.24 µM | 100% | – | > 10 µM | 0.21 µM | – | – | –
CC(C)(C)c1nnc(-c2cc3c(cc2F)S(=O)(=O)C[C@H](N)C(=O)N3Cc2ccc(Cl)cc2)o1 [Example 63, (3R)-3-amino-7-(5-tert-butyl-1,3,4-oxadiazol-2-yl)-5-[(4-chlorophenyl)methyl]-8-fluoro-1,1-dioxo-2,3-dihydro-1λ^6,5-benzothiazepin-4-one] | – | – | 141% | 0.0488 µM | 93% | 0.02 µM | 0.0671 µM | – | – | – | –
CC(C)(C)Nc1nnc(-c2cc3c(cc2F)S(=O)(=O)C[C@H](N)C(=O)N3Cc2ccc(Cl)cc2)o1 [Example 488, (3R)-3-amino-7-[5-(tert-butylamino)-1,3,4-oxadiazol-2-yl]-5-[(4-chlorophenyl)methyl]-8-fluoro-1,1-dioxo-2,3-dihydro-1λ^6,5-benzothiazepin-4-one] | – | – | 105% | 0.351 µM | 93% | – | 0.254 µM | 0.3 µM | – | – | –
CCc1cn(-c2cc3c(cc2F)S(=O)(=O)C[C@H](N)C(=O)N3Cc2ccc(Cl)cc2)nn1 [Example 3, (3R)-3-amino-5-[(4-chlorophenyl)methyl]-7-(4-ethyltriazol-1-yl)-8-fluoro-1,1-dioxo-2,3-dihydro-1λ^6,5-benzothiazepin-4-one] | – | – | 68% | 4.3 µM | 100% | – | 12 µM | 1.55 µM | – | – | –
